From US20220175699A1, “CO[…]-CLEAVABLE A[…] AND […]” (Ensysce Biosciences, Inc., priority 2019, published 2022) come the findings set out here.

Series [1] is described as follows: Plasma amphetamine following PO Compound AM-9 0.6 mg/kg to rats without and with trypsin inhibitor nafamostat (Example 8). In kind it is in vivo. Here is the method:
This example provides a comparison of the immediate release of amphetamine into plasma when Compound AM-9 at a dosage of 0.6 mg/kg is administered PO to fasted rats alone, or with 0.1 and 0.25 mg/kg trypsin inhibitor Nafamostat.
(§1) The formulation was a clear solution. Animals were either fasted overnight through 4 hours postdose or fed ad lib prior to dosing, 4 animals per groups. […] The liquid formulation was administered via oral gavage at […].
FIG. 8A depicts the mean plasma concentration of amphetamine over 8 hours after administration of Compound AM-9 at doses of 0.6 mg/kg alone and in combination with 0.1 mg/kg of Nafamostat and 0.25 mg/kg of Nafamostat. FIG. 8B depicts the mean plasma concentration of amphetamine over the first 2 hours after administration of Compound AM-9 at doses of 0.6 mg/kg alone and in combination with 0.1 mg/kg of Nafamostat and 0.25 mg/kg of Nafamostat.

The nature of series [2]: Plasma amphetamine following PO Compound AM-9 6 mg/kg to rats without and with trypsin inhibitor nafamostat (Example 9). In kind it is in vivo. Conditions: fasted rats, PO Compound AM-9 6 mg/kg with 1, 2.5, 5 and 10 mg/kg Nafamostat vs alone. How it is done:
This example provides a comparison of the immediate release of amphetamine into plasma when Compound AM-9 at a dosage of 6 mg/kg is administered PO to fasted rats alone, or with 1, 2.5, 5 and 10 mg/kg trypsin inhibitor Nafamostat.
as §1

The conditions of series [3]: rats, fasted, PO 27.7 mg/kg Compound AM-9. Here is the method:
Animals were fasted overnight through 4 hours postdose prior to dosing, 4 animals per groups. Individual doses of AM-9 was calculated based on body weights taken on the day of dosing. […] Prior to withdrawing the gavage tube, the tube was flushed with approximately 2 mL of water.
Blood was collected from a jugular vein into tubes containing K2EDTA anticoagulant. Blood (approximately 1 mL) was collected from each animal predose and at 0.167, 0.333, 0.5, 0.667, 0.833 1, 2, 4, 5, and 8 hours postdose and processed for plasma. Plasma samples were evaluated for AM-9 and amphetamine by LC-MS-MS Mass spectrometer (API 5000 AB Sciex Instruments).

For series [4] the following is noted: male Beagle dogs, fasted, PO 0.4 mg/kg. Here is the method: Male Beagle dogs were fasted overnight through 4 hours postdose. Individual doses of all amphetamine and AM-9 (0.4 mg/kg) were calculated based on body weights taken on the day of each dosing. The liquid formulations were administered via oral gavage, 4 per group. Prior to withdrawing the gavage tube, the tube was flushed with approximately 10 mL of water.
(§2) Blood (approximately 2 mL) was collected from each animal predose and at 0.167, 0.333, 0.5, 0.75, 1, 2, 3, 4, 6, and 8 hours postdose and processed for plasma. Plasma samples were evaluated for amphetamine by LC-MS-MS Mass spectrometer (API 5000 AB Sciex Instruments).

For series [5] the following is noted: male Beagle dogs, fasted, PO Compound AM-9. Here is the method: Male Beagle dogs were fasted overnight through 4 hours postdose. Individual doses of AM-9 were calculated based on body weights taken on the day of each dosing. The liquid formulations were administered via oral gavage, 4 per group. Prior to withdrawing the gavage tube, the tube was flushed with approximately 10 mL of water.
Blood (approximately 2 mL) was collected from each animal predose and at 0.167, 0.333, 0.5, 0.75, 1, 2, 3, 4, 6, and 8 hours postdose and processed for plasma. Plasma samples were evaluated for AM-9 and amphetamine by LC-MS-MS Mass spectrometer (API 5000 AB Sciex Instruments).

A short description of series [6]: Plasma amphetamine following PO administration of d-amphetamine, Compound AM-9 and Vyvanse to dogs (Example 7). As to conditions: male Beagle dogs, fasted. Here is the method: Male Beagle dogs were fasted overnight through 4 hours postdose. Individual doses of amphetamine, AM-9 and Vyvanse were calculated based on body weights taken on the day of each dosing. The liquid formulations were administered via oral gavage, 4 per group. Prior to withdrawing the gavage tube, the tube was flushed with approximately 10 mL of water.
as §2

For series [7] the following is noted: rats, fasted, IV 5 mg/kg Compound AM-9. Here is the method: Animals were fasted overnight through 4 hours postdose prior to dosing, 4 animals per groups. Individual doses of AM-9 was calculated based on body weights taken on the day of dosing.
Blood was collected from a jugular vein into tubes containing K2EDTA anticoagulant. Blood (approximately 1 mL) was collected from each animal predose and at 0.167, 0.333, 0.5, 0.667, 0.833 1, 2, 4, and 7 hours postdose and processed for plasma. Plasma samples were evaluated for either AM-9 or amphetamine by LC-MS-MS Mass spectrometer (API 5000 AB Sciex Instruments).

The conditions of series [8]: rats, fasted, IV 10 mg/kg Compound AM-9; 2, 15 and 60 min postdose.
Experimental: The formulation was a clear solution. Animals were fasted overnight through 4 hours postdose prior to dosing, 4 animals per groups. Individual doses of AM-9 was calculated based on body weights taken on the day of dosing.
Blood was collected from a jugular vein into tubes containing K2EDTA anticoagulant. Blood (approximately 1 mL) was collected from each animal predose and at 2, 15 and 60 min postdose and processed for plasma. CSF was obtained at these same time periods. Plasma and CSF samples were evaluated for AM-9 by LC-MS-MS Mass spectrometer (API 5000 AB Sciex Instruments).
The mark [9] stands for this setting: fasted rats, PO Compound AM-9 0.6 mg/kg with 0.1 and 0.25 mg/kg Nafamostat vs alone.

Where two headings read alike, the source gives them in different places.

For `N=C(N)c1ccc2cc(OC(=O)c3ccc(N=C(N)N)cc3)ccc2c1` [Nafamostat, 6-carbamimidoylnaphthalen-2-yl 4-(diaminomethyleneamino)benzoate], in series [1] (setting [9]), the “effect on Cmax of amphetamine release from AM-9” value is on record as “reduces the Cmax” and the “effect on Tmax of amphetamine release from AM-9” value was “increases the Tmax”. In addition, the “effect on release of amphetamine from Compound AM-9 from oral administration” value in series [1] (rats, PO Compound AM-9 0.6 mg/kg alone and with 0.1 or 0.25 mg/kg Nafamostat, FIGS. 8A-8B) is listed as “reduces the release of amphetamine”. Besides, in series [2], the “effect on Cmax of amphetamine release from AM-9” value is given as “reduces the Cmax” and the “effect on Tmax of amphetamine release from AM-9” value is on record as “increases the Tmax”.
`CC(=O)NCC(=O)N[C@@H](CCCNC(=N)N)C(=O)N[C@@H](C)Cc1ccccc1` [Compound AM-9, Amphetamine-arginine-glycine-acetate]: in series [3], the “conversion of administered AM-9 to amphetamine” value is recorded as “majority of the administered AM-9 is immediately converted to amphetamine” and the “peak plasma concentration (Cmax) of AM-9 relative to peak plasma concentration of amphetamine” value is “approximately half”. In series [4], the “amphetamine Tmax (time to maximum plasma concentration) compared with administration of amphetamine” value is reported as “the same Tmax”. Also, in series [5], the “conversion of administered AM-9 to amphetamine” value is listed as “majority of the administered AM-9 is immediately converted to amphetamine” and the “peak plasma concentration of AM-9 relative to that of amphetamine” value is recorded as “less than half”. Also, in series [6], the “Tmax for peak plasma concentration of amphetamine compared with direct administration of amphetamine” value was “the same as that from direct administration of amphetamine”. For the same compound, the “conversion of AM-9 to amphetamine in the blood” value in series [7] is “very little conversion of AM-9 to amphetamine in the blood”. For the same compound, in series [8], the “AM-9 crossing from plasma into the CSF” value is “very little AM-9 that crosses from plasma into the CSF”.
As to `CS(=O)(=O)O.CS(=O)(=O)O.C[C@@H](Cc1ccccc1)NC(=O)[C@@H](N)CCCCN` [Vyvanse, reference compound], the “Tmax for peak plasma amphetamine concentration” value in series [6] came out at 2 h.
